According to US20260060936A1, “INDOLIUM-BASED STABILIZERS OF HYDROPHOBIC DRUGS” (TECHNION RESEARCH & DEVELOPMENT FOUNDATION LTD., priority 2022, published 2026):

Experiments:
[1] = Long-term stability and shelf-life of nanoparticles (size and PDI over time); assay type: physicochemical; conditions: trametinib nanoparticles with different dyes; within the first 24 hours
Method: (§1) Manual preparation of nanoparticles. 100 μL of drugs dissolved in DMSO (10 mg/ml) were added under slight vortexing to 0.5 ml of 0.1 M sodium bicarbonate buffer containing 1.6 mg/ml R595 (100 μl from 10 mg/ml stock solution in 0.5 ml). For comparison with other stabilizers, the R595 was replaced with the following excipients: Pluronic F-127, sodium lauryl sulfate (SDS), carboxymethyl cellulose (CMC), α-cyclodextrin (αCD), β-cyclodextrin (βCD), βCD-SO3, and human serum albumin (HSA). All compounds were dissolved as 10 mg/ml in DDW. Further comparison of R595 with IR783/IR820 based nanoparticles was also performed in DDW. The solutions were centrifuged (30,000 g, 15 min, room temperature) and the pellet was resuspended in 1 ml of DDW. In the automation process, using the Andrew Alliance pipetting robot (Waters Corp, MA), the nanoparticles were purified using a PD-10 desalting column (Cytiva, Marlborough, MA) and 1.7 ml of eluent was collected after 2.5 ml void volume (defined by the vendor).
Characterization of nanoparticles. Dynamic light scattering (DLS) measurements were conducted using a Zetasizer Nano ZS (Malvern Panalytical, Malvern, UK).

[2] = DLS size, PDI and stability of copolymer-stabilized nanoparticles (Study 2); assay type: physicochemical; conditions: nilotinib nanoparticles
Method: Preparation of nanoparticles. Drugs dissolved in DMSO (Carlo Erba, 10 mg/ml) were added under slight vortex to aqueous dye solution, buffered with 0.1M sodium bicarbonate. IR783 (Sigma-Aldrich) and the polymers' concentrations were 2 mg/ml. […] If the particles were cleaned in centrifuge, the solution was sonicated using Sonics' Vibra-cell ultrasonic processor (20% amplitude, 3 seconds pulses) until homogenous.
Characterization of nanoparticles. DLS measurements were conducted using a Zetasizer Nano ZS (Malvern Panalytical, Malvern, UK).

3T3 cells = test: Image-based cell counting toxicity assay; parameters: species or system mouse; conditions: free drug; attributed to >5% DMSO in the medium
Method: Polymers toxicity assay in 2D. 3T3 Cells were seeded in 96 well plates at a 30% confluency (6000 cells per well) and allowed to adhere for 24 h. Polymers were purified with Sephadex G25 columns, nanoparticles were suspended in DDW and added to the wells. Untreated cells (control) were used to establish 100% viability. The effect on cell viability was measured with MTT (5 mg/ml, Glentham Life Sciences, UK).
In-vitro toxicity and anti-tumor efficacy experiments. First, we tested the three leading copolymers for in-vitro cytotoxicity, using mouse embryonic fibroblast cells (3T3 cells) as a non-cancerous model (FIG. 12). The copolymers were purified with Sephadex G25 columns and were serially diluted in a 96-well plate seeded with the cells. We used two separate viability assays: MTT and an image-based cell counting method using automated microscopy. In the MTT assay we found no reduction in cell viability over control, even in the highest concentration of polymers (FIG. 12, upper and middle panels). […] The cells morphology was not changed following incubation with the polymers, though at higher concentrations intracellular dark vesicles could be observed, indicating cellular uptake into the endo-lysosomal pathway (FIG. 13).

[3] = DLS size and PDI of drug nanoparticles with dye stabilizers (Study 1); assay type: physicochemical; conditions: for nanoparticle formation with IR783: stabilizer IR783; for nanoparticle formation with R595: stabilizer R595
Method: as §1, with “For” for “Manual preparation of nanoparticles. 100 μL of drugs dissolved in DMSO (10 mg/ml) were added under slight vortexing to 0.5 ml of 0.1 M sodium bicarbonate buffer containing 1.6 mg/ml R595 (100 μl from 10 mg/ml stock solution in 0.5 ml). For”, “R595” left out, “vendor). Characterization of nanoparticles. Dynamic light scattering (DLS) measurements were conducted using a Zetasizer Nano ZS (Malvern Panalytical, Malvern, UK).” for “vendor).”

KPL cells = conditions: mouse, in vivo, ip
Method: KRAS driven lung tumor studies. Six-weeks-old female C57BL/6J mice strain were purchased from Envigo RMS. Inducing tumors in the lung was done by injecting 10^5 KPL cells suspended in 200 μl of PBS intravenously (IV) via the tail vein. […] For efficacy studies, treatments were administered biweekly for ten weeks. For safety studies, immunohistochemistry (H&E) was done on treated mice. Animals were euthanized using CO2 inhalation. Mice were housed in air-filtered laminar flow cabinets with a 12-hr light/dark cycle and food and water ad libitum.

HCT116 = test: Cell viability assay in 2D (anti-cancer drug-screen); assay type: cell-based, human
Method: (§2) Cell viability assay in 2D. Cells were seeded in 96 well plates at a 30% confluency and allowed to adhere for 24 h. All drugs were dissolved in DMSO. Nanoparticles were suspended in DDW and were added to the wells after dilution with growth medium. Untreated cells (control) were used to establish 100% viability. The effect on cell viability was measured both with Promega® CellTiter-Glo® (CTG) and with images taken by the Lionheart followed by a cell count feature provided by the vendor (BioTeK).

KPL = test: as above; assay type: cell-based, mice
Method: as §2

With `CC1(C)C(=CC=C2CCCC(C=CC3=[N+](CCCCS(=O)(=O)[O-])c4ccc5ccccc5c4C3(C)C)=C2Cl)N(CCCCS(=O)(=O)[O-])c2ccc3ccccc3c21.[Na+]` [IR820] the “stabilizer comparison (size and PDI)” value [1] was “better stabilizer than IR783”.

`CC1(C)C(=CC=C2CCCC(C=CC3=[N+](CCCCS(=O)(=O)[O-])c4ccccc4C3(C)C)=C2Cl)N(CCCCS(=O)(=O)[O-])c2ccccc21.[Na+]` [IR783] showed a time to aggregation [2] of no more than 24 h.

For `CNC(=O)c1ccc(N2C(=S)N(c3ccc(C#N)c(C(F)(F)F)c3)C(=O)C2(C)C)cc1F` [Free enzalutamide, enzalutamide], the “toxicity in 3T3 cells” value (3T3 cells) was “slight toxicity in high concentrations”.

In the case of `CCc1c2c(nc3ccc(OC(=O)N4CCC(N5CCCCC5)CC4)cc13)-c1cc3c(c(=O)n1C2)COC(=O)[C@]3(O)CC` [irinotecan], the “nanoparticle formation with IR783” value [3] was “failed to form nanoparticles” and the “nanoparticle formation with R595” value [3] was “formed stable nanoparticles”.

With `CC(=O)Nc1cccc(-n2c(=O)n(C3CC3)c(=O)c3c(Nc4ccc(I)cc4F)n(C)c(=O)c(C)c32)c1` [trametinib] the “toxicity as observed with weight changes” value (KPL cells) was “no dose limiting toxicities”.

With `COc1cc2nccc(Oc3ccc(NC(=O)NC4CC4)c(Cl)c3)c2cc1C(N)=O` [lenvatinib] the “nanoparticle formation with IR783” value [3] was “failed to form nanoparticles” and the “nanoparticle formation with R595” value [3] was “formed stable nanoparticles”.

For `CC(C)C[C@H](NC(=O)[C@H](CCc1ccccc1)NC(=O)CN1CCOCC1)C(=O)N[C@@H](Cc1ccccc1)C(=O)N[C@@H](CC(C)C)C(=O)[C@@]1(C)CO1` [carfilzomib], the “potency in cell viability drug-screen with 7 drugs” value (HCT116) was “highest potency” and the “potency in cell viability drug-screen with 7 drugs” value (KPL) was “highest potency”.
